Data from paper PMC9421653 (Journal of Medicinal Chemistry, 2022).

Target: T1, human GPR84 (Homo sapiens, UniProt P04899+Q9NQS5)
T1 construct: expressed in transfected cells; host or cells: Flp-In T-REx 293 cells, doxycycline-induced; membrane preparations
Test: biochemical
Type: biochemical
Details: [35S]GTPγS assay; negative log of the IC50 in molar; mean ± SEM

T1 sequence (Q9NQS5+P04899 fused): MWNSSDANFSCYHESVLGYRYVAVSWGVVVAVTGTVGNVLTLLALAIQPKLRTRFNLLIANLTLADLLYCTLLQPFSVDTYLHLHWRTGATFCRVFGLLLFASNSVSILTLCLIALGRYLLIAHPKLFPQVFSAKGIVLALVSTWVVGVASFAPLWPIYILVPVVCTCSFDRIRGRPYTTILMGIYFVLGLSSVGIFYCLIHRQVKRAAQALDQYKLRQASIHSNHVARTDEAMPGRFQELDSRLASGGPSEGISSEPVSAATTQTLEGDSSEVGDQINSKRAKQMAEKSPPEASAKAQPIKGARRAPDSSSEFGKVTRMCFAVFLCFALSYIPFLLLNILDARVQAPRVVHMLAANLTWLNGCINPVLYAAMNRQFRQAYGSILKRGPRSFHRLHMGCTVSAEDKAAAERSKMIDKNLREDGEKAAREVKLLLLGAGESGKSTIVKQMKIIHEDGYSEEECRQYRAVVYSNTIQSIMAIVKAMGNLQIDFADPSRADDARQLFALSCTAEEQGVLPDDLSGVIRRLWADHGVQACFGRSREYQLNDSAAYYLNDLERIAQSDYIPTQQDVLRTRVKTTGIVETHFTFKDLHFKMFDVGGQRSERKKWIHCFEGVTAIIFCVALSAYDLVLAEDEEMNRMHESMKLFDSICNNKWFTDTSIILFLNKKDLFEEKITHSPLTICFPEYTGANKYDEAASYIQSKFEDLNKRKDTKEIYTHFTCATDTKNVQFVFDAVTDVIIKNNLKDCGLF

Row | Molecule | GTPγS (pIC50)
1 | CNS(=O)(=O)c1ccc(-c2nc(Cc3c[nH]c4ccccc34)nnc2-c2ccccc2)cc1 [Compound 33, 4-(3-((1H-Indol-3-yl)methyl)-6-phenyl-1,2,4-triazin-5-yl)-N-methylbenzenesulfonamide] | 6.49 ± 0.05
2 | Brc1ccc(-c2nnc(Cc3c[nH]c4ccccc34)nc2-c2ccc(Br)cc2)cc1 [Compound 7, 3-((5,6-Bis(4-bromophenyl)-1,2,4-triazin-3-yl)methyl)-1H-indole] | 7.60 ± 0.02
3 | CNC(=O)c1ccc(-c2nnc(Cc3c[nH]c4ccccc34)nc2-c2ccccc2)cc1 [Compound 73, 4-(3-((1H-Indol-3-yl)methyl)-5-phenyl-1,2,4-triazin-6-yl)-N-methylbenzamide] | 7.18 ± 0.09
4 | CN1CCN(C(=O)c2ccc(-c3nnc(Cc4c[nH]c5ccccc45)nc3-c3ccccc3)cc2)CC1 [Compound 77, (4-(3-((1H-Indol-3-yl)methyl)-5-phenyl-1,2,4-triazin-6-yl)phenyl)(4-methylpiperazin-1-yl)methanone] | 5.95 ± 0.10
5 | COc1ccc(-c2nnc(Cc3n[nH]c4ccccc34)nc2-c2ccc(OC)cc2)cc1 [Compound 14, 3-((5,6-Bis(4-methoxyphenyl)-1,2,4-triazin-3-yl)methyl)-1H-indazole] | 6.67 ± 0.03
6 | O=C(c1ccc(-c2nnc(Cc3c[nH]c4ccccc34)nc2-c2ccccc2)cc1)N1CCOCC1 [Compound 74, (4-(3-((1H-Indol-3-yl)methyl)-5-phenyl-1,2,4-triazin-6-yl)phenyl)(morpholino)methanone] | 7.19 ± 0.07
7 | OCc1ccc(-c2nnc(Cc3c[nH]c4ccccc34)nc2-c2ccccc2)cc1 [Compound 40, (4-(3-((1H-Indol-3-yl)methyl)-5-phenyl-1,2,4-triazin-6-yl)phenyl)methanol] | 7.76 ± 0.06
8 | CN(C)CCNC(=O)c1ccc(-c2nnc(Cc3c[nH]c4ccccc34)nc2-c2ccccc2)cc1 [Compound 75, 4-(3-((1H-Indol-3-yl)methyl)-5-phenyl-1,2,4-triazin-6-yl)-N-(2-(dimethylamino)ethyl)benzamide] | 5.54 ± 0.10
9 | COc1ccc(-c2nnc(Cc3c[nH]c4ccc(F)cc34)nc2-c2ccc(OC)cc2)cc1 [Compound 12, 3-((5,6-Bis(4-methoxyphenyl)-1,2,4-triazin-3-yl)methyl)-5-fluoro-1H-indole] | 6.92 ± 0.07
10 | c1ccc(-c2nnc(Cc3c[nH]c4cnccc34)nc2-c2cnccn2)cc1 [Compound 59, 3-((6-Phenyl-5-(pyrazin-2-yl)-1,2,4-triazin-3-yl)methyl)-1H-pyrrolo[2,3-c]pyridine] | 5.38 ± 0.12
11 | CC(C)c1nnc(Cc2c[nH]c3ccccc23)nc1C(C)C [Compound 9, 3-((5,6-Diisopropyl-1,2,4-triazin-3-yl)methyl)-1H-indole] | 5.38 ± 0.05
12 | Cc1ccc2c(Cc3nnc(-c4ccccc4)c(-c4ccccc4)n3)c[nH]c2c1 [Compound 16, 3-((5,6-Diphenyl-1,2,4-triazin-3-yl)methyl)-6-methyl-1H-indole] | <4.70
13 | c1ccc(-c2nnc(NCc3cccnc3)nc2-c2ccccc2)cc1 [Compound 24, 5,6-Diphenyl-N-(pyridin-3-ylmethyl)-1,2,4-triazin-3-amine] | 5.47 ± 0.05
14 | O=C(NCCO)c1ccc(-c2nc(Cc3c[nH]c4cnccc34)nnc2-c2ccccc2)cc1 [Compound 69, 4-(3-((1H-Pyrrolo[2,3-c]pyridin-3-yl)methyl)-6-phenyl-1,2,4-triazin-5-yl)-N-(2-hydroxyethyl)benzamide] | 6.84 ±0.05
15 | O=C(O)c1ccc(-c2nnc(Cc3c[nH]c4ccccc34)nc2-c2ccccc2)cc1 [Compound 52, 4-(3-((1H-Indol-3-yl)methyl)-5-phenyl-1,2,4-triazin-6-yl)benzoic Acid] | 7.06 ± 0.22
16 | CS(=O)(=O)NCc1ccc(-c2nnc(Cc3c[nH]c4ccccc34)nc2-c2ccccc2)cc1 [Compound 48, N-(4-(3-((1H-Indol-3-yl)methyl)-5-phenyl-1,2,4-triazin-6-yl)benzyl)methanesulfonamide] | 7.61 ± 0.06
17 | c1ccc(-c2nnc(CCc3cccnc3)nc2-c2ccccc2)cc1 [Compound 22, 5,6-Diphenyl-3-(2-(pyridin-3-yl)ethyl)-1,2,4-triazine] | 5.00 ± 0.17
18 | COC(=O)c1ccc(-c2nnc(Cc3c[nH]c4ccccc34)nc2-c2ccc(C(=O)OC)cc2)cc1 [Compound 10, Methyl 4-[3-(1H-Indol-3-ylmethyl)-6-(4-methoxycarbonylphenyl)-1,2,4-triazin-5-yl]benzoate] | 6.67 ± 0.08
19 | Cc1cc(Nc2nnc(-c3ccccc3)c(-c3ccccc3)n2)n[nH]1 [Compound 25, N-(5-Methyl-1H-pyrazol-3-yl)-5,6-diphenyl-1,2,4-triazin-3-amine] | <4.70
20 | CC(=O)OCc1ccc(-c2nnc(Cc3c[nH]c4ccccc34)nc2-c2ccccc2)cc1 [Compound 38, 4-(3-((1H-Indol-3-yl)methyl)-5-phenyl-1,2,4-triazin-6-yl)benzyl Acetate] | 8.06 ± 0.27

Row | Molecule | GTPγS (pIC50)
21 | FC(F)(F)Oc1ccccc1-c1cnnc(Cc2c[nH]c3ccccc23)n1 [Compound 26, 3-((5-(2-(Trifluoromethoxy)phenyl)-1,2,4-triazin-3-yl)methyl)-1H-indole] | <4.70
22 | CNC(=O)c1ccc(-c2nnc(Cc3c[nH]c4ccncc34)nc2-c2ccccc2)cc1 [Compound 72, 4-(3-((1H-Pyrrolo[3,2-c]pyridin-3-yl)methyl)-5-phenyl-1,2,4-triazin-6-yl)-N-methylbenzamide] | 6.35 ± 0.06
23 | COC(=O)c1ccc(-c2nnc(Cc3c[nH]c4cnccc34)nc2-c2ccccc2)cc1 [Compound 66, Methyl 4-(3-((1H-Pyrrolo[2,3-c]pyridin-3-yl)methyl)-5-phenyl-1,2,4-triazin-6-yl)benzoate] | 7.02 ± 0.06
24 | CC(=O)OCc1ccc(-c2nc(Cc3c[nH]c4ccccc34)nnc2-c2ccccc2)cc1 [Compound 37, 4-(3-((1H-Indol-3-yl)methyl)-6-phenyl-1,2,4-triazin-5-yl)benzyl Acetate] | 8.30 ± 0.35
25 | O=C(NCCO)c1ccc(-c2nnc(Cc3c[nH]c4cnccc34)nc2-c2ccccc2)cc1 [Compound 70, 4-(3-((1H-Pyrrolo[2,3-c]pyridin-3-yl)methyl)-5-phenyl-1,2,4-triazin-6-yl)-N-(2-hydroxyethyl)benzamide] | 7.04 ± 0.07
26 | CC(=O)NCc1ccc(-c2nc(Cc3c[nH]c4ccccc34)nnc2-c2ccccc2)cc1 [Compound 45, N-(4-(3-((1H-Indol-3-yl)methyl)-6-phenyl-1,2,4-triazin-5-yl)benzyl)acetamide] | 6.93 ± 0.06
27 | Methyl 3-(3-((1H-Indol-3-yl)methyl)-5-phenyl-1,2,4-triazin-6-yl)benzoate [Compound 53] | 6.40 ± 0.05
28 | CC(=O)NCCNC(=O)c1ccc(-c2nnc(Cc3c[nH]c4ccccc34)nc2-c2ccccc2)cc1 [Compound 79, 4-(3-((1H-Indol-3-yl)methyl)-5-phenyl-1,2,4-triazin-6-yl)-N-(2-acetamidoethyl)benzamide] | 6.26 ± 0.06
29 | CNC(=O)c1ccc(-c2nc(Cc3c[nH]c4ccncc34)nnc2-c2ccccc2)cc1 [Compound 71, 4-(3-((1H-Pyrrolo[3,2-c]pyridin-3-yl)methyl)-6-phenyl-1,2,4-triazin-5-yl)-N-methylbenzamide] | 5.64 ± 0.05
30 | c1ccc(-c2nnc(Cc3c[nH]c4cnccc34)nc2-c2ccnnc2)cc1 [Compound 61, 3-((6-Phenyl-5-(pyridazin-4-yl)-1,2,4-triazin-3-yl)methyl)-1H-pyrrolo[2,3-c]pyridine] | 5.84 ± 0.10
31 | CS(=O)(=O)NCc1ccc(-c2nc(Cc3c[nH]c4ccccc34)nnc2-c2ccccc2)cc1 [Compound 47, N-(4-(3-((1H-indol-3-yl)methyl)-6-phenyl-1,2,4-triazin-5-yl)benzyl)methanesulfonamide] | 6.72 ± 0.06
32 | Fc1ccc(-c2nnc(Cc3c[nH]c4ccccc34)nc2-c2ccc(F)cc2)cc1 [Compound 5, 3-((5,6-Bis(4-fluorophenyl)-1,2,4-triazin-3-yl)methyl)-1H-indole] | 7.81 ± 0.04
33 | COc1ccc(-c2nnc(Cc3cn(C)c4ccccc34)nc2-c2ccc(OC)cc2)cc1 [Compound 13, 3-((5,6-Bis(4-methoxyphenyl)-1,2,4-triazin-3-yl)methyl)-1-methyl-1H-indole] | <4.70
34 | CN(C)Cc1ccc(-c2nnc(Cc3c[nH]c4ccccc34)nc2-c2ccccc2)cc1 [Compound 44, 1-(4-(3-((1H-Indol-3-yl)methyl)-5-phenyl-1,2,4-triazin-6-yl)phenyl)-N,N-dimethylmethanamine] | 6.68 ± 0.05
35 | NC(=O)CNC(=O)c1ccc(-c2nnc(Cc3c[nH]c4ccccc34)nc2-c2ccccc2)cc1 [Compound 81, 4-(3-((1H-Indol-3-yl)methyl)-5-phenyl-1,2,4-triazin-6-yl)-N-(2-amino-2-oxoethyl)benzamide] | 5.80 ± 0.11
36 | OCc1ccc(-c2nc(Cc3c[nH]c4ccccc34)nnc2-c2ccccc2)cc1 [Compound 39, (4-(3-((1H-Indol-3-yl)methyl)-6-phenyl-1,2,4-triazin-5-yl)phenyl)methanol] | 7.16 ± 0.04
37 | COC(=O)c1ccc(-c2nc(Cc3c[nH]c4cnccc34)nnc2-c2ccccc2)cc1 [Compound 65, Methyl 4-(3-((1H-Pyrrolo[2,3-c]pyridin-3-yl)methyl)-6-phenyl-1,2,4-triazin-5-yl)benzoate] | 7.37 ± 0.33
38 | c1ccc(-c2nc(Cc3c[nH]c4cnccc34)nnc2-c2ccnnc2)cc1 [Compound 62, 3-((5-Phenyl-6-(pyridazin-4-yl)-1,2,4-triazin-3-yl)methyl)-1H-pyrrolo[2,3-c]pyridine] | 6.21 ± 0.04
39 | Cc1cc(Cc2nnc(-c3ccccc3)c(-c3ccccc3)n2)n[nH]1 [Compound 23, 3-((5-Methyl-1H-pyrazol-3-yl)methyl)-5,6-diphenyl-1,2,4-triazine] | 4.97 ± 0.23
40 | c1csc(-c2nnc(Cc3c[nH]c4ccccc34)nc2-c2cccs2)c1 [Compound 11, 3-((5,6-Di(thiophen-2-yl)-1,2,4-triazin-3-yl)methyl)-1H-indole] | 7.62 ± 0.05
